# Laboratory results published in patent US8143221B2, “Use of ADNF polypeptides for treating peripheral neurotoxicity” (Ramot at Tel-Aviv University, priority 2005, dated 2012).
# Ends that are not written are not given here.
# B1: ADNP: full length ADNF III, activity-dependent neuroprotective protein (protein, UniProt Q9H2P0 1-1102, looked up)
# chain: MFQLPVNNLGSLRKARKTVKKILSDIGLEYCKEHIEDFKQFEPNDFYLKNTTWEDVGLWDPSLTKNQDYRTKPFCCSACPFSSKFFSAYKSHFRNVHSEDFENRILLNCPYCTFNADKKTLETHIKIFHAPNASAPSSSLSTFKDKNKNDGLKPKQADSVEQAVYYCKKCTYRDPLYEIVRKHIYREHFQHVAAPYIAKAGEKSLNGAVPLGSNAREESSIHCKRCLFMPKSYEALVQHVIEDHERIGYQVTAMIGHTNVVVPRSKPLMLIAPKPQDKKSMGLPPRIGSLASGNVRSLPSQQMVNRLSIPKPNLNSTGVNMMSSVHLQQNNYGVKSVGQGYSVGQSMRLGLGGNAPVSIPQQSQSVKQLLPSGNGRSYGLGSEQRSQAPARYSLQSANASSLSSGQLKSPSLSQSQASRVLGQSSSKPAAAATGPPPGNTSSTQKWKICTICNELFPENVYSVHFEKEHKAEKVPAVANYIMKIHNFTSKCLYCNRYLPTDTLLNHMLIHGLSCPYCRSTFNDVEKMAAHMRMVHIDEEMGPKTDSTLSFDLTLQQGSHTNIHLLVTTYNLRDAPAESVAYHAQNNPPVPPKPQPKVQEKADIPVKSSPQAAVPYKKDVGKTLCPLCFSILKGPISDALAHHLRERHQVIQTVHPVEKKLTYKCIHCLGVYTSNMTASTITLHLVHCRGVGKTQNGQDKTNAPSRLNQSPSLAPVKRTYEQMEFPLLKKRKLDDDSDSPSFFEEKPEEPVVLALDPKGHEDDSYEARKSFLTKYFNKQPYPTRREIEKLAASLWLWKSDIASHFSNKRKKCVRDCEKYKPGVLLGFNMKELNKVKHEMDFDAEWLFENHDEKDSRVNASKTADKKLNLGKEDDSSSDSFENLEEESNESGSPFDPVFEVEPKISNDNPEEHVLKVIPEDASESEEKLDQKEDGSKYETIHLTEEPTKLMHNASDSEVDQDDVVEWKDGASPSESGPGSQQVSDFEDNTCEMKPGTWSDESSQSEDARSSKPAAKKKATMQGDREQLKWKNSSYGKVEGFWSKDQSQWKNASENDERLSNPQIEWQNSTIDSEDGEQFDNMTDGVAEPMHGSLAGVKLSSQQA
# modifications: full-length
# Legend:
# [1] = tested on: peripheral neurotoxicity induced by the taxane taxol; assay: Rota-rod test in taxol-treated rats; conditions: Experiment 2: rats, taxol cumulative 9 mg/kg i.p.; five days after the first taxol injection
# Experimental: In the Rota-rod test a rodent is placed on a rotating rod. […] The time spent on the rota-rod without falling was recorded. Impaired animals fall earlier from the rota-rod.
# (§3) Forty Sprague-Dawley rats (eight weeks old) were divided into four groups that received the following treatments: a) 10% Cremophor EL in Saline; b) taxol for a cumulative dose of 5.6 mg/kg; c) taxol for a cumulative dose of 5.6 mg/kg+NAP 2.5 μg/kg/Day; or d) taxol for a cumulative dose of 5.6 mg/kg+NAP 25 μg/kg/Day. The taxol was reconstituted in a vehicle of 10% Cremophor EL in Saline.
# (§4) Taxol treatments were administered four times intraperitoneally (i.p.) on nonconsecutive days in a volume of 250 μl each time. NAP was administered daily on 8 consecutive days from the first day of taxol injection (with a 2 day brake on the weekend).
# Rats were tested in the rota-rod and plantar test. The rota-rod test is described above and assesses muscle strength. […] Statistical differences were tested by ANOVA and by t-test.
# Fifteen Sprague-Dawley Rats (seven weeks old) were randomly divided into three groups that received the following treatments: a) 10% Cremophor EL in Saline; b) taxol for a cumulative dose of 9 mg/kg; or c) taxol for a cumulative dose of 9 mg/kg+2.5 μg/kg/Day NAP. The taxol was reconstituted in a vehicle of 10% Cremophor EL in Saline. […]
# [2] = tested on: peripheral neurotoxicity induced by the taxane taxol; assay: Plantar test (thermal hyperalgesia) in taxol-treated rats
# Experimental: as §3, §4
# Rats were tested in the rota-rod and plantar test. […] The plantar test evaluates thermal hyperalgesia. For the plantar test, each rat was placed in a clear plastic chamber with a plastic floor and allowed a short period to acclimatize to the new environment (approximately 2-5 min). The animals were then challenged with a radiant Infrared (IR) heat source directed at the plantar surface of the hind paw from below (7371 Plantar Test, Ugo Basile). The withdrawal latency of both the ipsilateral and contralateral hind paw was evaluated. The infrared intensity was set at IR55 and the maximum length of exposure to the IR source was eighteen seconds. Statistical differences were tested by ANOVA and by t-test. […]
# [3] = tested on: peripheral neurotoxicity under chemotherapy including L-OHP, FA/5-FU; assay: Randomized trial with or without NAP under chemotherapy with oxaliplatin (L-OHP), FA/5-FU; format: in vivo; conditions: patients with ACRC, NAP 15 mg/45-70 kg i.v. before L-OHP, vs control group
# Experimental: Aim of the study: Chemotherapy with L-OHP, FA, 5-FU has a high activity in advanced colorectal cancer (ACRC). The main dose-limiting toxicity of chemotherapy with L-OHP is a peripheral sensory neuropathy. In this study the patients (pts) will receive a chemotherapy with L-OHP, FA and 5-FU with or without NAP. The question is whether a reduction of side effects of neurotoxicity is seen after application of NAP.
# We include 27 patients with ACRC. In arm A chemotherapy is applied with L-OHP 85 mg/m2 d1, FA 500 mg/m2 d1+d2 and 5-FU 4000 mg/m2 over 48 h continuous infusion as biweekly schedule. In arm B, 15 mg/45-70 kg NAP is given over 10 min i.v. before application of the same schedule of chemotherapy. Investigation of toxicity, neurological examination and a blood count is performed before every cycle. For a daily documentation of the side effects every patient receives a questionnaire.
# [4] = tested on: neurons of the central nervous system; conditions: in-vitro assays and in vivo disease models; cited from earlier work
# [5] = tested on: tubulin; conditions: cited from earlier work
# [6] = tested on: peripheral neurotoxicity induced by the vinca alkaloid vincristine; assay: Rota-rod test in vincristine-treated rats; format: in vivo; conditions: vincristine 0.175 mg/kg i.p. alone vs saline control, P<0.01
# Experimental: (§1) Rats (200-300 g), divided into 4 groups of 10, were injected with vincristine sulfate dissolved in saline. Stock concentration was 2 mg/ml, pH 4.5-5.2. Aliquots of the drug were diluted daily in saline to concentrations of 0.175 mg/ml and were administered i.p. at a dose of 0.175 mg/kg. NAP was prepared at 0.1 mg/1.3 ml in saline (0.9% NaCl) and about 0.1 ml was injected subcutaneously to a ˜300 g rat to achieve a dose of 25 microgram/kg (exact calculations were made based on the daily body weights). For 2.5 microgram/kg, the injection solution was diluted by 10 and again 0.1 ml was injected per rat. Treatments took place daily (5 days a week) for ˜3 weeks (20 days) with the dosage calculated on daily body weight. NAP was administered at the same time as the vincristine, in the dosage and the amount where indicated the following schedule.
# (§2) Four groups were evaluated: 1) Control, saline (n=10), 2) Vincristine (i.p.) 0.175 mg/kg (n=10), 3) Vincristine (i.p.) 0.175 mg/kg+NAP (s.c.) 2.5 microgram/kg (n=10), and 4) Vincristine (i.p.) 0.175 mg/kg+NAP (s.c.) 25 microgram/kg (n=10).
# After a week cessation of treatment, a final boost of vincristine was given i.p. daily for three days and NAP at 25 microgram/kg was given intranasally to group number 4 only. […] For behavioral testing baseline toxin effects were evaluated 2-23 days following the first injection, using the testing procedures below: […]
# [7] = tested on: peripheral neurotoxicity induced by the vinca alkaloid vincristine; assay: Motor evaluation: ability to exit a circle 30 cm in diameter within 20 seconds, vincristine-treated rats; format: in vivo; conditions: vincristine 0.175 mg/kg i.p. alone vs control
# Experimental: as §1, §2
# Motor examination was performed on days 6, 9, 13 and 24 after the initiation of the vincristine injections. Rats were examined after vincristine injection, with the use of a motor disability scale. […]
# Animals were assessed based on their failure to walk out of a circle 30 cm in diameter within 20 seconds.
# [8] = tested on: peripheral neurotoxicity induced by the vinca alkaloid vincristine; assay: Olfactory discrimination test in vincristine-treated rats; format: in vivo; conditions: vincristine alone (group 2)
# Experimental: Treatments took place daily (5 days a week) for ˜3 weeks (20 days) with the dosage calculated on daily body weight. NAP was administered subcutaneously at the same time as the vincristine was administered intraperitoneally, in the dosage and the amount indicated in the schedule above. After a week cessation of treatment a final boost of vincristine was given i.p. daily for three days and NAP at 25 microgram/kg was given intranasally to group number 4 only. The intranasal formulation followed the previous experiment (Alcalay et al., infra). An olfactory discrimination test was performed on each of the three days of NAP treatment during the final boost period. (Macknin et al., Brain Res. 1000, 174-78 (2004)) The odors tested were 1) Deionized water (ddw) and 2) Scented extracts, i.e., vanilla/almond.
# Overall the experiment included 3 odors (water and two scented extracts) each encompassing 3 trials of 2 minutes. New dipped tip was introduced at the beginning of each trial for the different scents.
# Thirty minutes before the testing the subjects were housed in separate cages and a cotton tip dipped in water was placed hanging into the cage. During these 30 minutes the animal was acclimatized to the tip and the cage. Thereafter, the cotton tip was dipped in the desired scent and placed hanging from the top of the cage. […]
molecule,measurement,setting,value
CC(=O)O[C@H]1C(=O)[C@@]2(C)[C@H]([C@H](OC(=O)c3ccccc3)[C@]3(O)C[C@H](OC(=O)[C@H](O)[C@@H](NC(=O)c4ccccc4)c4ccccc4)C(C)=C1C3(C)C)[C@]1(OC(C)=O)CO[C@@H]1C[C@@H]2O [taxol],"Rota-rod test: neuromuscular function, toxin alone",[1],a significant effect on neuromuscular function
same,"Plantar test: thermal hyperalgesia, toxin alone","[2]; Experiment 1: rats, taxol cumulative 5.6 mg/kg i.p., after the last taxol injection on day three",exhibited thermal hyperalgesia
same,"Plantar test: thermal hyperalgesia, toxin alone","[2]; Experiment 2: rats, taxol cumulative 9 mg/kg i.p., eight days after the last Taxol injection",exhibited a significant thermal hyperalgesia
"CC[C@H](C)[C@H](NC(=O)[C@H](CO)NC(=O)[C@@H](NC(=O)[C@@H]1CCCN1C(=O)[C@H](C)NC(=O)[C@@H](N)CC(N)=O)C(C)C)C(=O)N1CCC[C@H]1C(=O)N[C@@H](CCC(N)=O)C(=O)O [NAP, Asn-Ala-Pro-Val-Ser-Ile-Pro-Gln]",Frequency of grade II/III leucopenia,[3],occurs at a lower frequency than in the control group
SALLRSIPA,Neuron survival in response to various insults,[4],keep neurons of the central nervous system alive
same,Interaction with tubulin,[5],interact with tubulin
CC[C@]1(O)C[C@H]2CN(CCc3c([nH]c4ccccc34)[C@@](C(=O)OC)(c3cc4c(cc3OC)N(C=O)[C@H]3[C@@](O)(C(=O)OC)[C@H](OC(C)=O)[C@]5(CC)C=CCN6CC[C@]43[C@@H]65)C2)C1 [vincristine],"Rota-rod performance, toxin alone vs control",[6],significant difference between the vincristine treated animals and the control animals indicating impairment
same,"Ability to exit a circle 30 cm in diameter within 20 seconds, toxin alone vs control",[7]; P<0.001,significantly reduced
same,"Ability to exit a circle 30 cm in diameter within 20 seconds, toxin alone vs control","[7]; P<0.001, listed as Vincristine",significantly worse as compared to control animals
same,"Time spent with new odors: olfaction capacity, toxin alone",[8],did not show any initial interest in the new smell
B1,Interaction with tubulin,[5],interact with tubulin
